Source: patent US20230255954A1, “INTERLEUKIN 33 (IL-33) INHIBITION FOR TREATMENT OF CANCER, FIBROSIS AND INFLAMMATION” (The General Hospital Corporation, priority 2020, published 2023)

Experiments:
[1] = test system: DNFB treated mice back skin; test: DNFB chronic skin inflammation model with pitavastatin; format: in vivo, mouse
Procedure: Four- to six-week old male and female mice were shaved on their abdomen and sensitized to 50 μL 0.5% 1-Fluoro-2,4-dinitrobenzene (DNFB, Millipore Sigma, St. Louis, Mo., catalog no. 42085) dissolved in acetone plus olive oil at 3:1 ratio (refer to as acetone). Two days after first sensitization, mice were re-sensitized to 50 μL 0.25% DNFB on their abdomen. After 5 days, mice were challenged with 100 μL 0.25% DNFB on their back skin, which was repeated three times per week for 22 days. Skin rash was monitored over the duration of the study.
Mice were treated with 0.5 mM pitavastatin in 200 μL 70% ethanol or 200 μL 70% ethanol alone to their back skin twice a week. Pitavastatin/70% ethanol treatments were given in DNFB doses.
Tissue samples were collected and fixed in 4% paraformaldehyde (Millipore Sigma, catalog no. P6148) overnight at 4° C. Next, tissues were dehydrated in ethanol, processed and embedded in paraffin. 5 μm sections paraffin-embedded tissues were placed on slides, deparaffinized and stained with H&E or toluidine blue (for mast cell detection). For immunohistochemistry, antigen retrieval was performed in 500 μL of antigen unmasking solution (VECTOR Laboratories, Burlingame, Calif., catalog no. H3300) diluted in 50 mL water using Cuisinart pressure cooker for 20 min at high pressure. Slides were washed three times for three minutes each in 1×TBS with 0.025% Triton X-100. Sections were blocked with 1% bovine serum albumin (Thermo Fisher Scientific, catalog no. BP1600) and 5% goat serum (Millipore Sigma, catalog no. G9023) for 1 hour. Slides were stained overnight at 4° C. with a primary antibody diluted in TBS containing 1% BSA (Appendix Table S2). The following day, slides were washed as above and incubated in 100 μL biotinylated secondary antibody (VECTOR Laboratories, catalog no. PK-6200) for 30 min. After washing, slides were incubated with 100 μL mixture of reagent A and B from VECTASTAIN Elite ABC universal kit Peroxidase (VECTOR Laboratories, catalog no. PK-6200) for 30 min. After washing, slides were incubated with 100 μL ImmPACT DAB chromogen stating (VECTOR Laboratories, catalog no. SK-4105) for a few minutes. Finally, slides dehydrated in ethanol and xylene and mounted with a coverslip using 3 drops of mounting media.
Next, we also investigated effect of pitavastatin in vivo chronic inflammation model. […] Next, we studied the effect of pitavastatin treatment on chronic inflammation in mice. […] Furthermore, both IL-33 and nuclear IRF3 were reduced in same epithelial region of DNFB plus pitavastatin versus DNFB plus carrier treated mice (FIGS. 12D and E). Thus, pitavastatin is a small molecule IL-33 inhibitor that suppresses skin inflammation.

[2] = test system: IRF3 nuclear localization; test: IRF3 nuclear immunofluorescence staining in poly (I:C) treated Pam212 cells; format: cell-based, mouse; conditions: compared to only Poly (I:C) treated group
Procedure: For immunofluorescence staining, Pam212 cells were permeated with 1×PBS supplemented with 0.2% Triton X-100 for 5 min. Slides were washed three times for three minutes each in 1×PBS with 0.1% TWEEN20. Slides were blocked with 1% bovine serum albumin and 5% goat serum for 1 hour. The slides were stained overnight at 4° C. with IRF3 antibody. The following day, slides were washed as above and incubated for two hours at room temperature with secondary antibodies conjugated to fluorochromes. Next, slides were incubated with 1:2000 DAPI (Thermo Fisher Scientific, catalog no. D3571) for five minutes at room temperature, then washed as above. Slides were mounted with Prolong Gold Antifade Reagent (Thermo Fisher Scientific, catalog no. P36930).
Next, to investigate the mechanism by which pitavastatin can block IL-33 expression, we first confirmed p-IRF3 expression level because IRF3 is a transcription factor of IL-33 expression. […] However, pitavastatin treatment with Poly (I:C) to Pam212 cells, level of p-IRF3 was decreased (FIG. 11A). […] After IRF3 are phosphorylated by upstream, p-IRF3 can translocate to nucleus as a transcription factor.

[3] = DNFB plus pitavastatin versus DNFB plus carrier
[4] = topical DNFB plus pitavastatin vs DNFB plus carrier

Compound: O=C(O)C[C@H](O)C[C@H](O)/C=C/c1c(C2CC2)nc2ccccc2c1-c1ccc(F)cc1 [pitavastatin]
- chronic inflammation in back skin ([1]; 0.5 mM pitavastatin in 200 μL 70% ethanol on back skin twice a week, compared to only DNFB treated mice): mild chronic inflammation
- IL-33 in epithelial region (staining) [1, 3]: reduced
- nuclear IRF3 in epithelial region (staining) [1, 3]: reduced
- IL-33 expression, RNA level ([1]; DNFB treated mice skin): decreased
- IL-33 expression, protein level ([1]; DNFB treated mice skin): decreased
- p-IRF3 ([1]; compared to only DNFB treated group): decreased
- epidermal thickness [1, 4]: reduced
- mast cell infiltration [1, 4]: reduced
- IRF3 nuclear localization [2]: blocked
